Laboratory results as given in patent publication US20150080462A1, “COMPOSITIONS AND METHODS FOR THE TREATMENT OR PREVENTION OF DISORDERS RELATING TO OXIDATIVE STRESS” (THE JOHNS HOPKINS UNIVERSITY, priority 2005, published 2015).
“Also recorded” adds a separate entry of the source. *1 amine or outer side, *2 acyl side, *3 side chain or, on linkers, in order; H or OH if unused. Where a SMILES comes first, the peptide text is derived from it. Bridges are numbered along the chain shown (N, C = ends). Roman numbers before positions name the chains, in order. [ ]: non-standard residue; d: D form. Actinocin(9to1) = Cc1c2oc3c(C)ccc(C(=O)[*:1])c3nc-2c(C(=O)[*:2])c(N)c1=O; NMeV = CN[C@H](C(=O)O)C(C)C; Sar = CNCC(=O)O

Legend:
[1] = test system: mouse cortical neuronal cells; test: Glutamate-induced cytotoxicity in primary neurons (MTT); format: cell-based; conditions: SnPPIX 5 μM; CHX 10 μM
Experimental: Mouse primary neurons cultured for 14 d were pre-treated for 6 h with EGb 761 (100 μg/ml). […] Neurons were incubated for an additional 18 h, and the MTT assay was used to estimate the cell survival. Experimental conditions were conducted in quadruplicate and repeated four times with different batches of primary cultures.
(§1) Neuronal survival was assessed and quantified with the MTT colorimetric assay. […] The optical density was determined at 570 nm. Cell viability of the vehicle-treated control group was defined as 100%, and MTT optical density in the treated groups was expressed as a percent of control.

HO-1 = HO-1 protein expression in cortical neurons (Western blot); conditions: cortical neurons pretreated 1 h with CHX or ATD, then 100 μg/ml EGb 761
NF-κB = format: cell-based, mouse; conditions: nrf2−/− MEFs pretreated 1 h with NAC (10 mM) or GSH-MEE (1 mM), then LPS (0.5 μg/ml) or TNF-α (10 ng/ml) 3 h
Experimental: MEFs (60-80% confluence) were transfected with luciferase reporter genes (pNF-κB-luc or ISRE-Tk-Luc vector) by using Lipofectamine2000 (Invitrogen). The Renilla-luciferase reporter gene (pRL-TK) was co-transfected for normalization. After the treatments, the reporter gene activity was measured using the Dual Luciferase Assay System (Promega). All transfection experiments were carried out in triplicate wells and were repeated separately at least 3 times.

[2] = test system: NADPH-cytochrome P450 reductase (CP450R); test: NADPH-cytochrome P450 reductase protein expression in cortical neurons (Western blot); conditions: 8 h
HO-2 = HO-2 protein expression in cortical neurons (Western blot); conditions: 8 h
caspase-3 = test: Caspase-3/7 assay in cortical neurons; format: cell-based, mouse; conditions: for caspase-3 activity: cortical neurons, t-BuOOH 60 μM, NMDA 100 μM, glutamate 300 μM
Nrf2 = conditions: cortical neurons; t-BuOOH 60 μM, NMDA 100 μM, glutamate 300 μM; up to 360 minutes
primary cortical neurons [3] = test: Neuronal viability by MTT assay (t-BuOOH, NMDA, glutamate with or without t-BHQ); conditions: 24 hours
primary cortical neurons [4] = test system: primary cortical neurons
nrf2−/− and nrf2+/+ mice = test: LPS induced septic shock mortality, NAC pretreatment; format: in vivo; conditions: LPS 1.5 mg per mouse
[5] = test system: OVA challenged Nrf2−/− mice; test: Lung histology (H&E) of OVA challenged mice pretreated with NAC; conditions: OVA challenged (1st challenge) Nrf2−/− mice, NAC 7 days before challenge
Experimental: Mice (male, 8 weeks old) were sensitized on day 0 by i.p. injection (100 μl/mouse) with 20 μg of ovalbumin complexed with aluminum potassium sulfate. On day 14, mice were sensitized a second time with 100 μg OVA. On days 24, 26 and 28, the mice were anesthetized by i.p. injection of 0.1 ml of a mixture of ketamine (10 mg/ml) and xylazine (1 mg/ml) diluted in sterile PBS and challenged with 200 μg of OVA (in 100 μl sterile PBS) by intratracheal instillation. The control groups received sterile PBS with aluminum potassium sulfate by i.p. route on day 0 and 14, and 0.1 ml of sterile PBS on day 24, 26 and 28. […]
The lungs were inflated with 0.6 ml of buffered formalin (10%), fixed for 24 h at 4° C., prior to histochemical processing. […] The number of PAS positive cells was counted on longitudinal lung sections of the proximal airways. The percent PAS positive cells was determined by counting the mucus positive cells and unstained epithelial cells in the proximal airways under the microscope with a grid at 100× magnification. […] The data are expressed as mean±SEM.
Nrf2^+/+ and Nrf2^−/− mice (6 mice in each group) were sensitized with OVA by following the procedure as already described. […] Twenty-four hours after challenge, BAL fluids and lung tissues were harvested and analyzed as above. […]

[6] = test system: OVA challenged Nrf2−/− mice; test: BAL fluid inflammatory cell counts in OVA challenged mice pretreated with NAC
Experimental: Mice (n=8) were anesthetized with 0.3 ml of pentobarbital (65 mg/ml) and the trachea was cannulated. […] BAL fluid was collected with 1 ml followed by 2×1 ml of sterile PBS containing 5 mM EDTA, DTT (5 mM) and PMSF (5 mM). The BAL fluid was immediately centrifuged at 1500×g. The total cell count was measured, and cytospin preparation (Shandon Scientific Inc., Cheshire, UK) was performed. Cells were stained with Diff-Quick reagent, and a differential count of 300 cells was performed using standard morphological criteria (Saltini C et al. Am Rev Respir Dis 130:650-658.1984).
Mice (male, 8 weeks old) were sensitized on day 0 by i.p. injection (100 μl/mouse) with 20 μg of ovalbumin complexed with aluminum potassium sulfate. On day 14, mice were sensitized a second time with 100 μg OVA. On days 24, 26 and 28, the mice were anesthetized by i.p. injection of 0.1 ml of a mixture of ketamine (10 mg/ml) and xylazine (1 mg/ml) diluted in sterile PBS and challenged with 200 μg of OVA (in 100 μl sterile PBS) by intratracheal instillation. The control groups received sterile PBS with aluminum potassium sulfate by i.p. route on day 0 and 14, and 0.1 ml of sterile PBS on day 24, 26 and 28. Mice were euthanized at different time points after OVA challenge for BAL, RNA isolation, histopathology, and for AHR measurements.
Nrf2^+/+ and Nrf2^−/− mice (6 mice in each group) were sensitized with OVA by following the procedure as already described. […] Twenty-four hours after challenge, BAL fluids and lung tissues were harvested and analyzed as above. The experiment was repeated two times.

[7] = test system: mouse cortical neuronal cells; test: H2O2-induced cytotoxicity in primary neurons (MTT); format: cell-based; conditions: SnPPIX 5 μM
Experimental: After 10 d in culture, mouse primary neurons were pre-treated with EGb 761 (10, 50, or 100 μg/ml) for 6 h, and then treated for 18 h with H2O2 (20 μM) or vehicle (control) with or without 5 μM HO inhibitor (SnPPIX, Porphyrin Products, Inc., (Logan, Utah). Cell survival was evaluated by the 3-(4,5-dimethylthiazol-2-yl)-2,5-diphenyl tetrazolium bromide (MTT) colorimetric assay.
as §1

**Q.** How did the “protective effect of EGb 761 against glutamate in presence of inhibitor” value [1] turn out when `C[C@@H]1C[C@@H]([C@H](O)CC2CC(=O)NC(=O)C2)C(=O)[C@@H](C)C1` [CHX, cycloheximide] was run?
**A.** prevented the protective effect

**Q.** What about the “HO-1 induction by EGb 761 in presence of inhibitor” value (HO-1) of the same compound?
**A.** completely block

**Q.** How did the “NF-κB mediated reporter activity elicited by LPS or TNF-α” value (NF-κB) turn out when `CCOC(=O)CNC(=O)[C@H](CS)NC(=O)CC[C@H](N)C(=O)O` [GSH-monoethyl ester] was run?
**A.** significantly attenuated

**Q.** `CC(C)(C)[C@]1(O)CC2OC(=O)CC23C(=O)OC2OC(=O)[C@H](O)C231` (some centres unmarked) [bilobalide] was tested. Which “NADPH-cytochrome P450 reductase (CP450R) protein expression” value [2] did it give?
**A.** do not affect

**Q.** And the HO-2 expression level (HO-2)?
**A.** do not affect

**Q.** For `Cc1c2oc3c(C)ccc(C(=O)N[C@@H]4C(=O)N[C@H](C(C)C)C(=O)N5CCC[C@H]5C(=O)N(C)CC(=O)N(C)[C@@H](C(C)C)C(=O)O[C@@H]4C)c3nc-2c(C(=O)N[C@@H]2C(=O)N[C@H](C(C)C)C(=O)N3CCC[C@H]3C(=O)N(C)CC(=O)N(C)[C@@H](C(C)C)C(=O)O[C@@H]2C)c(N)c1=O` [ATD, actinomycin D] (I: T[dV]P[Sar][NMeV] / II: T[dV]P[Sar][NMeV]; ester I:1-I:C, II:1-II:C; linker I:N-II:N via Actinocin(9to1)), which “HO-1 induction by EGb 761 in presence of inhibitor” value (HO-1) is on record?
**A.** completely block

**Q.** `CC(C)(C)OO` [t-BuOOH, test-butyl hydroperoxide] was tested. Which caspase-3 activity (caspase-3) did it give?
**A.** induced an increase

**Q.** And the “Nrf2 in the cytosolic fraction” value (Nrf2)?
**A.** decreased to below the basal level after 30 minutes

**Q.** And the “Nrf2 in the nuclear fraction” value (Nrf2)?
**A.** elevated at 30 min

**Q.** What does the source list for `CC(C)(C)c1cc(O)ccc1O` [t-BHQ, tert-butylhydroquinone]?
**A.** decrease in viable neurons caused by t-BuOOH, NMDA or glutamate (primary cortical neurons [3]; t-BHQ 20 μM): abolished; neuronal viability, compound alone (primary cortical neurons [4]): no effect; increase in caspase-3 activity evoked by t-BuOOH, NMDA and glutamate (caspase-3; t-BHQ 20 μM): prevent the increase; basal levels of caspase-3 activity (caspase-3; t-BHQ alone): no effect

**Q.** For `CC(=O)N[C@@H](CS)C(=O)O` [NAC, N-acetyl L-cysteine], which “LPS induced mortality (% survival) vs vehicle-pretreated mice” value (nrf2−/− and nrf2+/+ mice; nrf2−/− and nrf2+/+ mice, NAC ip 500 mg/kg daily 4 days, 5 days) is on record?
**A.** improved survival

**Q.** What about the “mice surviving LPS induced septic shock” value (nrf2−/− and nrf2+/+ mice; nrf2−/− mice, NAC 500 mg/kg ip daily 4 days, saline-pretreated all died within 56 h) of the same compound?
**A.** 40%

**Q.** What about the “protection against LPS induced septic shock” value (nrf2−/− and nrf2+/+ mice; wild-type mice, NAC 500 mg/kg 4 days) of the same compound?
**A.** modest protection

**Q.** And the “infiltration of inflammatory cells in the peribronchial and perivascular region” value [5]?
**A.** marked reduction; also recorded: significant reduction

**Q.** And the “other cell types (macrophages, neutrophils, lymphocytes, epithelial cells) in BAL fluid” value ([6]; 24 h post 1st OVA challenge, NAC treatment)?
**A.** did not have any significant inhibitory effect

**Q.** What about the “inflammatory cells in the BAL fluid” value ([6]; Nrf2−/− OVA mice, NAC pretreatment 7 days before 1st OVA challenge) of the same compound?
**A.** significantly (*) reduced

**Q.** And the “total and differential cell counts in saline-challenged mice” value ([6]; saline-challenged mice treated with NAC vs untreated)?
**A.** did not differ

**Q.** Which “number of viable neurons vs untreated control” value (primary cortical neurons [3]; t-BuOOH 60 μM, NMDA 100 μM, glutamate 300 μM) does the source give for `CN[C@H](CC(=O)O)C(=O)O` [NMDA] here?
**A.** significantly decreased

**Q.** And the caspase-3 activity (caspase-3)?
**A.** induced an increase

**Q.** And the “Nrf2 in the cytosolic fraction” value (Nrf2)?
**A.** no effect

**Q.** And the “Nrf2 in the nuclear fraction” value (Nrf2)?
**A.** no effect

**Q.** Which “protective effect of EGb 761 against H2O2 in presence of HO inhibitor” value [7] does the source give for `C=Cc1c2[n-]c(c1C)/C=c1\[n-]/c(c(C)c1C=C)=C\c1[n-]c(c(CCC(=O)O)c1C)C=c1[n-]/c(c(C)c1CCC(=O)O)=C\2.[Sn+4]` [SnPPIX, Tin Protoporphyrin IX] here?
**A.** blocked the protective effect

**Q.** What about the “protective effect of EGb 761 against glutamate in presence of inhibitor” value [1] of the same compound?
**A.** prevented the protective effect

**Q.** For `N[C@@H](CCC(=O)O)C(=O)O` [glutamate], which caspase-3 activity (caspase-3) is on record?
**A.** induced an increase

**Q.** And the “Nrf2 in the cytosolic fraction” value (Nrf2)?
**A.** no effect

**Q.** What about the “Nrf2 in the nuclear fraction” value (Nrf2) of the same compound?
**A.** no effect
